Measurements taken from patent publication US20050064442A1, “Methods for identifying risk of breast cancer and treatments thereof” (priority 2002, published 2005).

Tested on: cell lines where RAD21 expression is inhibited using siRNA
Assay: Clonogenic survival assay
Format: cell-based
Protocol: Clonogenic survival assays measure survival of cells after treatment with cytotoxic agents. In this particular assay the aim is to investigate the effect of downregulating RAD21 expression on sensitivity to therapeutically relevant DNA damaging agent.
Cells were transfected with siRNA against RAD21, siRAD21—272, to reduce expression of RAD21. […] Cells were then trypsinized and replated at 200 cells per plate. Cells were grown for 11-12 days, fixed and stained with crystal violet to detect colonies. Colonies were then counted.
The data were fitted to a curve and the DRF values calculated from the fitted curves of siRAD21 and Lipofectamine.

bleomycin
sensitivity to drug in clonogenic survival (cell lines where RAD21 expression is inhibited using siRNA, FIGS. 9 and 10): increased sensitivity
DRF20 (factor by which the dose can be reduced in the presence of decreased RAD21 expression) (cells transfected with siRAD21—272, drug exposure 2 hours, two days after transfection, colonies counted after 11-12 days, from fitted curves of siRAD21 and Lipofectamine): 1.15
